In patent publication US9789096B2, “Methods and compositions for selective and targeted cancer therapy” (Board of Regents of the University of Texas System, priority 2013, dated 2017):
Like-named read-outs stand apart in the source and are kept apart here.

How the values were obtained:
HBEC30KT = experiment: Cell viability (ATP, Cell Titer Glo, 4 days), HBEC30KT; type: cell-based, human; settings: Homo sapiens
H2009 = experiment: Cell viability dose-response, H2009; type: cell-based, human; settings: Homo sapiens, NCI-H2009
In short: (§1)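 Read-out is total cellular ATP, measured with CellTiter-Glo after four days of compound treatment. Cells start at 15% confluence in RPMI-1640 containing 5% FBS and 2 mM L-glutamine. Each point averages two replicates (±SEM).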

HCC44 = experiment: Cell viability dose-response, HCC44; type: cell-based, human; settings: Homo sapiens
In short: as §1

H460 = experiment: Cell viability dose-response, H460; type: cell-based; settings: Homo sapiens, NCI-H460
Description: (§2) FIG. 6A. […] Cell viability is plotted vs. compound concentration. Compound was added to cells plated at 15% confluence in 96-well plates in RPMI-1640 media supplemented with 5% Fetal Bovine Serum and 2 mM L-Glutamine. After 4 days of incubation, ATP levels were measured using Cell Titer Glo (Promega). Data are presented as the average of 2 replicates ±SEM.
(§3) Selectivity may be measured by the half maximal inhibitory concentration (IC50), which, as used herein, is a measure of the effectiveness of a compound in killing cells. This quantitative measure indicates how much of a particular compound is needed to kill a particular cell population by half (e.g., as indicated by the amount of ATP). […] The IC50 can be determined by constructing a dose-response curve. The lower the IC50, the higher the potency, and the greater the difference between IC50 values for different cell lines (e.g., sensitive lines vs. insensitive lines, and sensitive lines vs. normal lines) the greater the selectivity. […]
(§4) With this information, we synthesized and tested a series of small molecules derived in conception from the oxalamide and chromone scaffold including N-acyl ureas, as shown in Tables 6-8. Each compound was tested in a 12-point dose-response study starting at 50 micromolar and decreasing in 3-fold increments to sub-nanomolar concentrations, in duplicate. Additionally, one or more additional cell line was tested in the same way.

H1395 = experiment: Cell viability dose-response, H1395; type: cell-based; settings: Homo sapiens, NCI-H1395
Description: as §2, §3, §4

HCC366 = experiment: Cell viability dose-response, HCC366; type: cell-based; settings: Homo sapiens
Description: as §2, §3, §4

HCC95 = experiment: Cell viability dose-response, HCC95; type: cell-based; settings: Homo sapiens
Description: as §2, §3, §4

H1819 = experiment: Cell viability dose-response, H1819; type: cell-based, human
In short: (§5)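 Viability read as total ATP (Cell Titer Glo) following 4 days' compound exposure, with IC50 derived from dose-response curves. Duplicate 12-point series, top concentration 50 micromolar with 3-fold steps, on cells seeded at 15% confluence in RPMI-1640, 5% FBS, 2 mM L-glutamine.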

H2073 = experiment: Cell viability dose-response, H2073; type: cell-based, human; settings: Homo sapiens
In short: as §1

H1993 = experiment: Cell viability dose-response, H1993; type: cell-based; settings: Homo sapiens, NCI-H1993
Description: as §2, §3, §4

H1155 = experiment: Cell viability dose-response, H1155; type: cell-based; settings: Homo sapiens, NCI-H1155
Description: as §2, §3, §4

HCC4017 = experiment: Cell viability dose-response, HCC4017; type: cell-based, human; settings: Homo sapiens
Description: as §2, §3, §4

H2122 = experiment: Cell viability dose-response, H2122; type: cell-based, human
In short: as §5

[1] = system: 12 lung adenocarcinoma cell lines; experiment: Proliferation of the panel of 12 lung adenocarcinoma cell lines; type: cell-based, human; settings: FIG. 8E
Description: as §2
To discover selective agents, twelve cell lines of diverse genotype were selected for analysis. 108 lung cancer cell lines were initially clustered into six groups based on mRNA expression of genes that underwent frequent copy number variation. Two cell lines were chosen from each group for high throughput chemical screening. All 12 of the chosen cell lines were derived from lung adenocarcinomas, eliminating both lineage and histology as confounders. None of the cell lines chosen for screening harbored EGFR mutations or ALK rearrangements, so that the final set represented a collection of diverse lung adenocarcinoma genotypes for which there are no targeted therapy.
The proliferative impact of each compound in the library was assayed by analyzing total ATP four days after administration of 2.5 μM in a single well. This first pass yielded 15,843 toxins defined as a compound where ATP levels were […] three standard deviations below the mean for at least one cell line. For each of these putative toxins, the average effect on proliferation was retested on each cancer cell line and a non-cancerous immortalized HBEC line (control), yielding a confirmation dataset.
In addition, N-acyl benzothiazoles was also discovered, such as 4-amino-N-(6-methoxybenzo[d]thiazol-2-yl)benzamide (ATB). We compared the proliferation of 12 lung adenocarcinoma cell lines and three HBEC lines after the addition of ATB.
We subsequently synthesized various derivatives that are both selective and potent (Tables 1 and 2). One leading candidate is a benzothiazole, SW202857, that inhibits proliferation in three of 12 adenocarcinoma cell lines at concentrations less than 10 nM.

[2] = 12-point dose-response starting at 50 micromolar, 3-fold increments, in duplicate, read-out: toxicity data, HBEC30KT
[3] = 12-point dose-response starting at 50 micromolar, 3-fold increments, in duplicate, read-out: toxicity data, H2009
[4] = HCC44, 12-point dose-response starting at 50 micromolar, 3-fold increments, in duplicate, read-out: toxicity data, HCC44
[5] = 12-point dose-response starting at 50 micromolar, 3-fold increments, in duplicate, read-out: toxicity data, H460
[6] = 12-point dose-response starting at 50 micromolar, 3-fold increments, in duplicate, read-out: toxicity data, H1395
[7] = 12-point dose-response starting at 50 micromolar, 3-fold increments, in duplicate, read-out: toxicity data, HCC366
[8] = 12-point dose-response starting at 50 micromolar, 3-fold increments, in duplicate, read-out: toxicity data, HCC95
[9] = NCI-H2073, 12-point dose-response starting at 50 micromolar, 3-fold increments, in duplicate, read-out: toxicity data, H2073
[10] = 12-point dose-response starting at 50 micromolar, 3-fold increments, in duplicate, read-out: toxicity data, H1993
[11] = 12-point dose-response starting at 50 micromolar, 3-fold increments, in duplicate, read-out: toxicity data, H1155
[12] = HCC4017, 12-point dose-response starting at 50 micromolar, 3-fold increments, in duplicate, read-out: toxicity data, HCC4017
[13] = Tables 3 and 4, read-out: HBEC30KT IC50
[14] = Tables 3 and 4, read-out: IC50 (uM) vs indicated non-small cell lung cancer cell line H2009
[15] = HCC44, Tables 3 and 4, read-out: IC50 (uM) vs indicated non-small cell lung cancer cell line HCC44
[16] = Tables 3 and 4, read-out: IC50 (uM) vs indicated non-small cell lung cancer cell line H460
[17] = Tables 3 and 4, read-out: IC50 (uM) vs indicated non-small cell lung cancer cell line H1395
[18] = Tables 3 and 4, read-out: IC50 (uM) vs indicated non-small cell lung cancer cell line HCC366
[19] = Tables 3 and 4, read-out: IC50 (uM) vs indicated non-small cell lung cancer cell line HCC95
[20] = Homo sapiens, NCI-H1819, Tables 3 and 4, read-out: IC50 (uM) vs indicated non-small cell lung cancer cell line H1819
[21] = NCI-H2073, Tables 3 and 4, read-out: IC50 (uM) vs indicated non-small cell lung cancer cell line H2073
[22] = Tables 3 and 4, read-out: IC50 (uM) vs indicated non-small cell lung cancer cell line H1993
[23] = Tables 3 and 4, read-out: IC50 (uM) vs indicated non-small cell lung cancer cell line H1155
[24] = HCC4017, Tables 3 and 4, read-out: IC50 (uM) vs indicated non-small cell lung cancer cell line HCC4017
[25] = Homo sapiens, NCI-H2122, Tables 3 and 4, read-out: IC50 (uM) vs indicated non-small cell lung cancer cell line H2122

| Structure (SMILES) | IC50 (HBEC30KT; [2]) | IC50 (H2009; [3]) | IC50 (HCC44; [4]) | IC50 (H460; [5]) | IC50 (H1395; [6]) | IC50 (HCC366; [7]) | IC50 (HCC95; [8]) | IC50 (HBEC30KT; [13]) | IC50 (H2009; [14]) | IC50 (HCC44; [15]) | IC50 (H460; [16]) | IC50 (H1395; [17]) | IC50 (HCC366; [18]) | IC50 (HCC95; [19]) | IC50 (H1819; [20]) | IC50 (H2073; [21]) | IC50 (H1993; [22]) | IC50 (H1155; [23]) | IC50 (HCC4017; [24]) | IC50 (H2122; [25]) | also measured |
| --- | --- | --- | --- | --- | --- | --- | --- | --- | --- | --- | --- | --- | --- | --- | --- | --- | --- | --- | --- | --- | --- |
| COc1ccc(CCNC(=O)C(=O)Nc2ccc(Cl)cc2)cc1 [SW027951] | 50 µM | ≥ 50 µM | ≥ 50 µM | 1.34 µM | 50 µM | 50 µM | 0.09 µM | – | – | – | – | – | – | – | – | – | – | – | – | – | IC50 (H1819; Homo sapiens, NCI-H1819, 12-point dose-response starting at 50 micromolar, 3-fold increments, in duplicate, read-out: toxicity data, H1819): ≥ 50 µM; IC50 (H2073; [9]): ≥ 50 µM; IC50 (H1993; [10]): 50 µM; IC50 (H1155; [11]): 50 µM; IC50 (HCC4017; [12]): ≥ 50 µM; IC50 (H2122; Homo sapiens, NCI-H2122, 12-point dose-response starting at 50 micromolar, 3-fold increments, in duplicate, read-out: toxicity data, H2122): 0.15 µM |
| COc1ccc(CCNC(=O)C(=O)Nc2cccc(Br)c2)cc1 [SW027952] | 19.8 µM | 11.3 µM | ≥ 50 µM | 50 µM | 50 µM | 50 µM | 0.24 µM | – | – | – | – | – | – | – | – | – | – | – | – | – | IC50 (H1819; 12-point dose-response starting at 50 micromolar, 3-fold increments, in duplicate, read-out: toxicity data, H1819): ≥ 50 µM; IC50 (H2073; [9]): 17.5 µM; IC50 (H1993; [10]): 50 µM; IC50 (H1155; [11]): 50 µM; IC50 (HCC4017; [12]): ≥ 50 µM; IC50 (H2122; 12-point dose-response starting at 50 micromolar, 3-fold increments, in duplicate, read-out: toxicity data, H2122): 1.04 µM |
| NC(=O)c1c(NC(=O)c2sc3ccccc3c2Cl)sc2c1CCCCC2 [SW155113] | – | – | – | – | – | – | – | 33 µM | 32 µM | 27 µM | 29 µM | 13.4 µM | 22.5 µM | 100 µM | 14 µM | 6 µM | 8.1 µM | 14.5 µM | 23 µM | 0.36 µM | – |
| COc1ccc2nc(NC(=O)c3ccc(OCc4ccccc4)cc3)sc2c1 [SW202773-1] | – | – | – | – | – | – | – | 24.9 µM | 16.6 µM | 0.122 µM | 0.157 µM | 25.9 µM | 41.8 µM | 0.163 µM | 42.9 µM | 0.268 µM | 21.7 µM | 23.6 µM | 21.1 µM | 0.0431 µM | – |
| COc1ccc(C(=O)c2ccc(NC(=O)c3sc4ccccc4c3Cl)cc2)cc1 [SW202855-1] | – | – | – | – | – | – | – | 24.3 µM | 13.9 µM | 25.4 µM | 28.8 µM | 28.4 µM | 49 µM | 9.84 µM | 32 µM | 36.2 µM | 17.8 µM | 46.1 µM | 15.7 µM | 18.3 µM | – |
| CNC(=O)c1cccc(NC(=O)N2CCC(Oc3ccccc3Cl)CC2)c1 [compound 28c, reference compound] | – | – | – | – | – | – | – | – | – | – | – | – | – | – | – | – | – | – | – | – | toxicity to the same 4 non-small cell lung cancer cell lines [1]: toxic |
